Assay results as given in publication PMC9160799, “PET Imaging of Acidic Tumor Environment With ^89Zr-labeled pHLIP Probes” (Frontiers in Oncology, 2022).
Entries after “also recorded” stand apart in the source; their conditions may differ.

Tested on: kidney uptake of [89Zr]Zr-DFOsqa-Lys-Var3
Test: Kidney-blocking study (PET imaging)
Type: in vivo, healthy female SCID mice
Details: drug IV 30 min before 7.4 MBq [89Zr]Zr-DFOsqa-Lys-Var3 (1.2 nmol); two doses per drug, n=2 each; PET 24 h p.i. vs control mice
Method: The imaging and biodistribution studies were performed with male (RM-1 model) and female (4T1 model) athymic nude mice and the kidney-blocking experiments were performed with female SCID mice received from Charles River Laboratories (Stone Ridge, NY). After arrival, the mice were kept in the MSK vivarium for one week before any experimental handling was performed. The animals were allowed free access to water and food, and all animal care and experimental procedures were approved by the Institutional Animal Care and Use Committee (IACUC). For the subcutaneous allografts, a 1-to-1 ratio of Corning Matrigel Matrix and the cell solution was prepared and stored on ice for the injections. Each mouse received a subcutaneous injection of 100 µL (50 µL cell solution, viability > 90%, + 50 µL Matrigel) into the flank on the level of the right shoulder. The injections were performed under anesthesia (2% isoflurane, Baxter Healthcare, Deerfield, IL, USA). Palpable tumors of similar size (100–300 mm^3) developed 5–8 days after grafting.
PET images were obtained at the respective timepoints with the mice under anesthesia (2% isoflurane) on a microPET Focus 120 (Concorde Microsystems) or an Inveon PET-CT (Siemens) rodent scanner. All images were analyzed using the Medical Imaging Data Examiner Amide (version 0.9.0) or the Inveon reconstruction software suite. The counting rates in the reconstructed images were converted to percent of injected dose per weight (%ID/g) by applying a system-specific calibration factor. At the final timepoint, the remaining mice were euthanized (by CO2 asphyxiation, followed by cervical dislocation) and their tumors were resected for histological analysis.
Additional experiments were performed to investigate the influence of various kidney-uptake blockers and diuretics. Healthy female SCID mice received a “blocking agent” 30 minutes prior to the injection of [^89Zr]Zr-DFOsqa-Lys-Var3 (7.4 MBq/200 µCi, 1.2 nmol). […] The experimental set-up can be found in Table S6 .
Table S6. Summary of the kidney-blocking study. Healthy female SCID mice (2 mice per experiment/ dosage + 2 control mice without treatment, total of 22 mice) received a blocking agent intravenously 30 minutes prior to the injection of 7.4 MBq/200 µCi [89Zr]Zr-DFOsqa-Lys-Var3 (1.2 nmol pHLIP).
The drug dose was calculated as weight of drug (mg) per weight of mouse (kg). A potential kidney […]
calibrated images to the control mice (24 hours post injection). No drug led to a significant reduction […]
drug (IV 30 min before dose [mg/kg] effect on kidney mechanism of action [89Zr]Zr-pHLIP) (n=2) uptake […]
and water from the body; acts as a diuretic […]
organic anion transporter; blocks the uptake of organic anions […]
tubule via inhibition of the Na/Cl symporter; acts as a diuretic […]
increased – serum levels decreased

NS(=O)(=O)c1cc(C2(O)NC(=O)c3ccccc32)ccc1Cl (centres unmarked) [chlorthalidone]
effect on kidney uptake: not significant; also recorded: none of these drugs led to a significant reduction of kidney uptake

CCCN(CCC)S(=O)(=O)c1ccc(C(=O)O)cc1 [probenecid]
effect on kidney uptake: not significant; also recorded: none of these drugs led to a significant reduction of kidney uptake
